SMILES strings stand for the structures. Where two headings read alike, the source gives them in different places.

Broadly, the Ki is the dissociation constant of the complex between target and ligand, obtained from inhibition or displacement. Higher therefore signals a looser hold on the target.

Series [1] addresses T1, human H3 receptors (Homo sapiens (Human), UniProt Q9Y5N1). Nature of the series: Affinity assessment: displacement of [3H]-N-α-Methylhistamine binding to membranes. Conditions: membranes containing human H3 receptors, radioligand [3H]-N-α-Methylhistamine. On the procedure:
The affinity of compounds of the invention to the H3 receptor can be assessed by measuring displacement of binding of the radioligand [3H]-N-α-Methylhistamine (PerkinElmer, #NET1027250UC) to membranes containing human H3 receptors (PerkinElmer, #ES-392-M400UA; GenBank: NM_007232.2; Hill S J et al, International Union of Pharmacology XIII. Classification of histamine receptors, Pharmacol Rev, 49(3), 253-278, 1997).
2. Compound serial dilution: Dilution was performed by BioTek Precision on compound dilution plate. Compound concentrations start at 5 or 10 μM, 10 point dose titrations with 3- or 5-fold serial dilutions.
3. Preparation of 2× membrane solution (25 ml): 1.25 ml human Histamine H3 receptor stock, 23.75 ml assay buffer.
4. Preparation of 2× solution of [3H]-N-α-methylhistamine (25 ml): 4.27 μl [3H]-N-α-methylhistamine stock, 25 ml assay buffer.
5. Assemble binding reaction: (a) transfer 1 μl of compound solution, 1 μl 100% DMSO and 1 μl 1 M (R)(−)-α-Methylhistamine (Sigma, #H128) to the reaction plate at room temperature, (b) transfer 50 μl of 2× protein solution to reaction plate, (c) transfer 49 μl of 2× radioligand solution to reaction plate (Corning® 96 well EIA/RIA plate; Sigma, #CLS3797).
6. Cover the reaction plate with a TopSeal™-A film (Perkin Elmer, #6005185) and incubate at 28° C. for 120 min. Equilibrate Zeba Spin Desalting Plates (Thermo Scientific, #89808) to room temperature for 120 min.
7. Remove the sealing material from the bottom of the filtration plate. Place the plate on a wash plate. Centrifuge at 1000 g for 2 min to remove the storage buffer at room temperature.
8. Transfer 70 μl binding reaction from reaction plate into filtration plates. Place the filtration plates on top of collection plate. Centrifuge the plate assembly at 1000 g for 2 min to collect the protein with bound radioligand. Add 200 μl of Microscint-40 (PerkinElmer, #6013641-1L) to each well of the collection plate. Cover the plates with TopSeal™-A film.
9. Read the plates on Wallac Microbeta Trilux 2450, Instrument settings: counting mode: CPM, counting time: 2 min.
10. Data analysis: GraphPad Prism: log (compound concentration) vs. response; variable slope. The Ki is calculated based on Chang and Prusoff: Ki=IC50/{1+([radioligand]/Kd)}
In general terms: Loss of bound radioactivity is the signal in a displacement assay; it reports binding, not function.

Series [2] concerns the target T1, human H3 receptors. Kind of series: Potency assessment: blockade of (R)-alpha-methylhistamine-mediated cAMP production (LANCE Ultra cAMP kit). The class given is cell-based. Conditions: CHO cells expressing human H3 receptors. The method, then: The potency of compounds of the invention as H3 receptor antagonists can be assessed by measuring the blockade of (R)-alpha-methylhistamine-mediated cAMP production utilizing a LANCE Ultra cAMP kit (PE #TRF0263) in CHO cells expressing human H3 receptors (GenBank: BC096840; Strausberg R L et al, Proc. Natl. Acad. Sci. U.S.A. 99(26), 16899-16903; 2002).
2. Preparation of assay plate: Different concentrations of the compounds of the invention (0.01-1000 nM), H3 positive controls and cAMP calibration standards; […] Forskolin (CALBIOCHEM #344270); 5 μM (R)-alpha-methylhistamine (H3 receptor agonist); 1% DMSO (SIGMA #D2650); total volume: 95 nl.
3. Preparation of the cell solution: Collect cells with stimulation buffer, final density: 100,000 cells/ml.
4. Reaction: (a) transfer 10 μl of cell solution to assay plate, (b) centrifuge at 600 rpm for 3 min and incubate 50 min at room temperature, (c) add 5 μL 4× Eu-cAMP tracer solution (60 μl Eu-cAMP tracer stock solution+2.94 ml cAMP detection buffer) and 5 μL 4× ULight™-anti-cAMP solution (20 μl […]+2.98 ml cAMP detection buffer) to assay plate.
5. Reading plate on EnVision: flash energy: 100%; excitation filter: 111 UV2 320; emission filter: 203 (Eu 615) and 205 (APC 665); number of laser flashes: 20; window: 100 μs; laser mirror module: 445 or 446; laser cycle: 16,600 μs.
6. Data analysis by GraphPad Prism: log (compound concentration) vs. response; variable slope.
(cAMP levels reflect the balance of adenylyl cyclase and phosphodiesterase activity.)

Series [3] can be described thus: Solubility of solid forms in aqueous media. The class given is physicochemical.

T1 sequence (Q9Y5N1 whole entry): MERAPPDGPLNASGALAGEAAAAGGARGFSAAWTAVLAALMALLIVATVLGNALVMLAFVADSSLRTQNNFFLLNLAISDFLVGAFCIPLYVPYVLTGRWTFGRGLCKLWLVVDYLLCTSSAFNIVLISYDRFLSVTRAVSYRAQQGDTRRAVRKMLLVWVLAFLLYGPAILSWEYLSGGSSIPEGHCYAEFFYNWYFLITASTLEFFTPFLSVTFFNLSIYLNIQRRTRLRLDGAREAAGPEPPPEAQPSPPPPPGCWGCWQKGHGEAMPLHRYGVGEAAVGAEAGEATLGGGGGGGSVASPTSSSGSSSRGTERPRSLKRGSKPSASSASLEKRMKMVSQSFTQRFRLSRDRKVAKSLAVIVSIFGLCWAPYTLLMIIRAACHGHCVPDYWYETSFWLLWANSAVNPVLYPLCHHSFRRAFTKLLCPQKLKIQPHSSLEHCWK

With `O=C(OC1CCN(c2ccc(=O)[nH]n2)CC1)N1CCN(C2CC2)CC1` [Example 1.4, 1-(6-oxo-1,6-dihydropyridazin-3-yl)piperidin-4-yl 4-cyclopropylpiperazine-1-carboxylate], the values for the Ki at human H3 receptors [1] and at human H3 receptors [2] were 25 nM and 2.3 nM, respectively.
The like results for `Cn1nc(N2CCC(OC(=O)N3CCN(C4CCC4)CC3)CC2)ccc1=O` [Example 1.5, 1-(1-methyl-6-oxo-1,6-dihydropyridazin-3-yl)piperidin-4-yl 4-cyclobutylpiperazine-1-carboxylate] were, in that order, 25 nM and 1.1 nM.
In the case of `CCn1nc(N2CCC(OC(=O)N3CCN(C(C)C)CC3)CC2)ccc1=O` [Example 1.6, 1-(1-ethyl-6-oxo-1,6-dihydropyridazin-3-yl)piperidin-4-yl 4-isopropylpiperazine-1-carboxylate], the values for the Ki at human H3 receptors [1] and at human H3 receptors [2] were 44 nM and 2.9 nM, respectively.
Taken in the same sequence, the figures for `CC(C)N1CCN(C(=O)OC2CCN(c3ccn(C)c(=O)c3)CC2)CC1` [Example 2.1, 1-(1-methyl-2-oxo-1,2-dihydropyridin-4-yl)piperidin-4-yl 4-isopropylpiperazine-1-carboxylate] were 20 nM and 3.1 nM.
Taken in the same sequence, the figures for `O=C(OC1CCN(c2cc[nH]c(=O)c2)CC1)N1CCN(C2CCC2)CC1` [Example 2.2, 1-(2-oxo-1,2-dihydropyridin-4-yl)piperidin-4-yl 4-cyclobutylpiperazine-1-carboxylate] were 25 nM and 0.5 nM.
The like results for `CC(C)N1CCN(C(=O)OC2CCN(c3cc[nH]c(=O)c3)CC2)CC1` [Example 2.3, 1-(2-oxo-1,2-dihydropyridin-4-yl)piperidin-4-yl 4-isopropylpiperazine-1-carboxylate] were, in that order, 12 nM and 0.9 nM.
As to `CC(C)N1CCN(C(=O)OC2CCN(c3ccc(=O)[nH]c3)CC2)CC1` [Example 3.1, 1-(6-oxo-1,6-dihydropyridin-3-yl)piperidin-4-yl 4-isopropylpiperazine-1-carboxylate], the Ki at human H3 receptors [1] was determined as 1.2 nM; on human H3 receptors [2] it was 1.6 nM.
As for `Cn1nc(N2CCC(OC(=O)N3CCN(C4CCC4)CC3)CC2)ccc1=O` [Form A of the free from, 1-(1-methyl-6-oxo-1,6-dihydropyridazin-3-yl)piperidin-4-yl 4-cyclobutylpiperazine-1-carboxylate], the “solubility in aqueous media” value in series [3] (across a pH range from about 1-8) was “good solubility”.
In the case of `Cn1nc(N2CCC(OC(=O)N3CCN(C4CCC4)CC3)CC2)ccc1=O` [Form B of the free from, 1-(1-methyl-6-oxo-1,6-dihydropyridazin-3-yl)piperidin-4-yl 4-cyclobutylpiperazine-1-carboxylate], the “solubility in aqueous media” value in series [3] is “good solubility”.

(Values after patent US9034874B2, “Carbamate/urea derivatives” (NOVARTIS AG, priority 2012, dated 2015).)
